Article PMC4841536, “Characterization of the Anti-HCV Activities of the New Cyclophilin Inhibitor STG-175” (PLoS ONE, 2016)
“And” between values parts separate entries of the source, which are not always exact repeats. Equal entries are not always repeated. Where two headings read alike, the source gives them in different places.

How the values were obtained:
Human recombinant CypA = target: T1, Human recombinant CypA (Homo sapiens, UniProt P62937); assay: α-chymotrypsin-coupled PPIase assay, CypA isomerase activity; type: biochemical; conditions: 5°C, 10 concentrations 0.05–1000 nM; read-out: IC50, neutralization of the isomerase activity of CypA
T1 construct: purchased Atgen
Procedure: Inhibition of CypA and CypD isomerase activities were quantified using a α-chymotrypsin-coupled assay adapted to a 96-well plate format. Human recombinant CypA or CypD (Atgen) was dissolved to 10 nM in PPIases buffer (50 mM Hepes, 100 mM NaCl, 1 mg/ml bovine serum albumin, 1 mg/ml α-chymotrypsin; pH 8). Succinyl-AAPF-pNA peptide substrate (Sigma) was dissolved to 3.2 mM in LiCl/trifluoroethanol. Each CypI was prepared at 10 concentrations in DMSO, then diluted into CypA/D PPIase buffer to 0.05–1000 nM. Incubations were performed at 5°C. Ninety five μL of reaction mix was added to 5 μL peptide in 96-wells and OD405 nm measured at 6-sec intervals for 6 min using a Biotek Synergy H4 plate reader. Data were fitted with Graphpad Prism 6.0 to acquire first-order rate constants, which were calculated by subtracting the rate constant from uncatalyzed reactions (no CypA/D). […]
(§1) The inhibition of the isomerase activities of CypA and CypD were measured with 10 increasing concentrations of STG-175 to quantify IC50 values.
Fig 1 Anti-PPIase and immunosuppressive activities of STG-175. […] Inhibition of CypA (B) and CypD (C) isomerase activities were assessed using the α-chymotrypsin-coupled assay. […] D. IL-2 promoter activation upon T-cell stimulation was determined using an engineered Jurkat T-cell line, which expresses betagalactosidase. […] The Y-axis values are expressed as percentage of activity. […]

Human recombinant CypD = target: T2, Human recombinant CypD (Homo sapiens, UniProt P30405); assay: α-chymotrypsin-coupled PPIase assay, CypD isomerase activity; type: biochemical; conditions: 5°C, 10 concentrations 0.05–1000 nM
T2 construct: purchased Atgen
Procedure: Inhibition of CypA and CypD isomerase activities were quantified using a α-chymotrypsin-coupled assay adapted to a 96-well plate format. Human recombinant CypA or CypD (Atgen) was dissolved to 10 nM in PPIases buffer (50 mM Hepes, 100 mM NaCl, 1 mg/ml bovine serum albumin, 1 mg/ml α-chymotrypsin; pH 8). Succinyl-AAPF-pNA peptide substrate (Sigma) was dissolved to 3.2 mM in LiCl/trifluoroethanol. Each CypI was prepared at 10 concentrations in DMSO, then diluted into CypA/D PPIase buffer to 0.05–1000 nM. Incubations were performed at 5°C. Ninety five μL of reaction mix was added to 5 μL peptide in 96-wells and OD405 nm measured at 6-sec intervals for 6 min using a Biotek Synergy H4 plate reader. Data were fitted with Graphpad Prism 6.0 to acquire first-order rate constants, which were calculated by subtracting the rate constant from uncatalyzed reactions (no CypA/D). The catalytic rate constants were plotted as a function of inhibitor concentration to obtain IC50s.
as §1
Fig 1 Anti-PPIase and immunosuppressive activities of STG-175. A. Structures of cyclophilin inhibitors. Inhibition of CypA (B) and CypD (C) isomerase activities were assessed using the α-chymotrypsin-coupled assay. Each test compound was prepared at 10 concentrations (0.05–1000 nM). All solutions were equilibrated, and reactions conducted at 5°C. Reactions were initiated by mixing 95 μL reaction mix with 5 μL of the peptide to be cleaved and measuring OD405 nm at 6-sec intervals for 6 min. […] Enzyme catalyzed rate constants were calculated by subtracting the rate constant from uncatalyzed reactions (no CypA/D), and catalytic rate constants plotted as a function of inhibitor concentration to obtain IC50s. […] D. IL-2 promoter activation upon T-cell stimulation was determined using an engineered Jurkat T-cell line, which expresses betagalactosidase. […] The Y-axis values are expressed as percentage of activity. Data expressed as EC50s are representative of two independent experiments.

[1] = tested on: IL-2 promoter activation in Jurkat T-cell line; assay: In vitro assay for immunosuppression: IL-2 promoter activation in engineered Jurkat T-cell line (betagalactosidase); type: cell-based; conditions: Homo sapiens; Jurkat cells activated with PMA 10 ng/mL, 24 h; read-out: IC50, inhibition of IL-2 production (immunosuppressive activity)
Procedure: IL-2 promoter activation upon T-cell stimulation was determined using an engineered Jurkat T-cell line, which expresses betagalactosidase when exposed to chemical non-specific factors like […] (PMA) and phytohematogglutinin (PHA) as described previously. DMSO or STG-175 were added together with PMA (10 ng/mL) to 1 million of Jurkat cells (triplicates). Betagalactosidase activity in cell lysates was quantified by fluorescence (460 nm) after 24 h.
Fig 1 Anti-PPIase and immunosuppressive activities of STG-175. A. Structures of cyclophilin inhibitors. Inhibition of CypA (B) and CypD (C) isomerase activities were assessed using the α-chymotrypsin-coupled assay. Each test compound was prepared at 10 concentrations (0.05–1000 nM). All solutions were equilibrated, and reactions conducted at 5°C. Reactions were initiated by mixing 95 μL reaction mix with 5 μL of the peptide to be cleaved and measuring OD405 nm at 6-sec intervals for 6 min. Data were fitted with Graphpad Prism 6.0 to obtain first-order rate constants. Enzyme catalyzed rate constants were calculated by subtracting the rate constant from uncatalyzed reactions (no CypA/D), and catalytic rate constants plotted as a function of inhibitor concentration to obtain IC50s. […] D. IL-2 promoter activation upon T-cell stimulation was determined using an engineered Jurkat T-cell line, which expresses betagalactosidase. Jurkat cells (1 million) were activated with PMA (10 ng/mL). […] The Y-axis values are expressed as percentage of activity. Data expressed as EC50s are representative of two independent experiments.
The formation of this trimolecular complex inhibits T cell proliferation by blocking the signaling pathway leading to IL-2 production upon T-cell stimulation. The immunosuppressive activity of STG-175 was evaluated by inhibition of the IL-2 production in Jurkat cells.

[2] = tested on: subgenomic Con1 (GT1b) replicon in Huh-7 cells; type: cell-based, hepatitis C virus; conditions: for passage at which resistant variants emerged (CypI comparison): Fig 3C
Procedure: Huh-7 cell expressing subgenomic Con1 (GT1b) replicon were seeded in a 10 cm dish at a density of 3 × 10^5 cells per culture flask in complete DMEM (with G418) with STG-175 or selected drugs. Cells were grown until they reached 90% confluence, trypsinized and re-seeded at the same cell concentration in a new 10-cm dish with the same drug concentration. Cells were passaged 22 times in the presence of drugs. At each passage, sample of cells were collected, RNA extracted according to the manufacturer's instructions and analyzed by RT-PCR for HCV RNA levels.
(§2) Fig 3 Replicon clearance, replication rebound and resistance analyses. […] Then drugs were removed to allow viral replication rebound to occur. At each passage, samples of cells were collected, RNA extracted and analyzed by RT-PCR for HCV RNA levels. B. Emergence of resistance: Con1 replicon Huh-7 cells were passaged 22 times in the absence or presence of STG-175 or selected DAAs. At each passage, sample of cells were collected, RNA extracted and analyzed by RT-PCR for HCV RNA levels. C. […] Data are expressed as number of HCV RNA copies per cell. […] Data are expressed as mean of relative light units and calculated EC50s are presented. […] E. Degree of resistance of D320E and Y321N Con1 variants: Left panel. Wild-type (WT), D320E and D320/Y321N NS5A Con1 RNA were electroporated into Huh7.5.1 cells and replication monitored over 8 days by quantifying the levels of intracellular HCV RNA. Right panel. Same as just above except that increasing concentrations of STG-175 were added at the time of the electroporation. […] STG-175 is taken as the substance from the printed x-axis title 'STG-175 in Log nM'.
We then examined the development of resistance to STG-175. GT1b Con1 sub-genomic replicon cells were grown in the presence of STG-175 (0.25 and 1 μM), telaprevir (2.5 and 10 μM), boceprevir (2.5 and 10 μM), daclatasvir 100 pM and 1 nM) or a combination of STG-175 (0.25 μM) with either telaprevir (2.5 μM), boceprevir (2.5 μM) or daclatasvir (100 pM) for 22 successive passages. At each passage, fresh drug was added and a sample of cells was taken to quantify HCV RNA levels by RT-qPCR.

[3] = tested on: wild-type Con1 GT1b replicon; assay: Electroporated Con1 RNA replication in Huh7.5.1 cells (RT-qPCR), wild-type; type: cell-based; conditions: Hepatitis C virus, Huh-7.5.1, 192 h, read-out: EC50 GT1b WT
From the text: (§3) The GT1b subgenomic firefly luciferase reporter replicon pFK-I389/NS3–3 was provided by R. Bartenschlager. The GT1B subgenomic NS3, NS5A and NS5B mutants were created via homologous recombination using the In-Fusion HD Cloning kit (Clontech) as we described previously. […] The in vitro transcription of wild-type and mutant Con1 RNA was accomplished using the T7 MEGAscript kit (Ambion) by following the manufacturer’s instructions. In vitro-transcribed RNAs were introduced into Huh7.5.1 cells by electroporation. Trypsinized cells were washed twice and resuspended in phosphate-buffered saline (PBS) (calcium-free and magnesium-free) at 1x 10^7 cells per ml. Ten micrograms of RNA for each mutant was mixed with 0.4 mL of cells in a 4-mm cuvette, and a Bio-Rad Gene Pulser system was used to deliver a single pulse at 0.27 kV, 100 ohms, and 960 μF. Cells were then plated in 12-well dishes. RNA transfection efficiency and HCV subgenomic replication were assessed by reverse transcription-quantitative PCR (RT-qPCR) and presented as genome equivalents (GE) per microgram of total RNA as described previously. We measured by RT-qPCR the replication of wild-type, STG-175-, NS5Ai-, NS3i- and NS5Bi-resistant mutants in the presence of increasing concentrations of SGT-175, daclatasvir, telaprevir, boceprevir and sofosbuvir over a period of 8 days.
as §2
To determine whether the D320E and Y321N substitutions truly render HCV resistant to STG-175, they were introduced into wild-type Con1 replicon as we described previously. Introduction of the substitutions was verified by sequencing. In vitro-transcribed wild-type, D320E and D320E/Y321N HCV RNAs were then electroporated into Huh7.5.1 cells and viral replication assessed by RT-qPCR and presented as GE per microgram of total RNA as we described previously. […] We then analyzed the replication of wild-type, D320E and D320E/Y321N in the presence of increasing concentrations of SGT-175 over a period of 8 days.
Fig 5 Cross-resistance analyses.

[4] = tested on: D320E NS5A Con1 GT1b replicon; assay: microbe, parasite or virus in culture; type: cell-based, hepatitis C virus; conditions: Hepatitis C virus, GT1B, Huh-7.5.1, 192 h, read-out: EC50 D320E NS5A
From the text: as §3
(§4) D320E and D320E/Y321N NS5A substitutions were introduced into wild-type Con1 GT1 replicon as we described previously. Con1-NS5A-D320E, and Con1-NS5A-D320E/Y321N were generated using the following forward and reverse phosphorylated (p) primer sets, respectively: (p)[…] and (p)[…], and (p)[…] and (p)[…]. PCR products were circularized with Quick T4 DNA ligase (NEB) for 5 min and transformed into NEB 10-beta competent cells. The NS5A gene was sequenced to confirm the introduced substitutions.
as §2
(§5) To determine whether the D320E and Y321N substitutions truly render HCV resistant to STG-175, they were introduced into wild-type Con1 replicon as we described previously. Introduction of the substitutions was verified by sequencing.

[5] = tested on: D320E/Y321N NS5A Con1 GT1b replicon; assay: microbe, parasite or virus in culture; type: cell-based, hepatitis C virus; conditions: Hepatitis C virus, GT1B, Huh-7.5.1, 192 h, read-out: EC50 D320E/Y321N NS5A
From the text: as §3, §4, §2, §5

[6] = tested on: HCV GT4a subgenomic replicon ED43/SG-Feo; set-up: method as in PMID 24687498; conditions: cited from earlier work

T2 sequence (P30405 30-207): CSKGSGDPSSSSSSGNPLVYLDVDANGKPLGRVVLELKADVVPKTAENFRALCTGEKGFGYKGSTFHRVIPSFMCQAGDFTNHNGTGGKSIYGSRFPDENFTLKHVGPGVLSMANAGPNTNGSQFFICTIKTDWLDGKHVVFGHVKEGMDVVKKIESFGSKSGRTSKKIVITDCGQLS
T1 sequence (P62937 whole entry): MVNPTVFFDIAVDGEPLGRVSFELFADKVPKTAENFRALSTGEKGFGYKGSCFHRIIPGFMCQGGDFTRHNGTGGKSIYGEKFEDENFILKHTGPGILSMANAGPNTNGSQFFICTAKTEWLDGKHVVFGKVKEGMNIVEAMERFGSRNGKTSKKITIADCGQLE

Compound	IC50 (Human recombinant CypA) [nM]	IC50 (Human recombinant CypD; read-out: IC50, neutralization of the isomerase activity of CypD) [nM]	IC50 [1] [nM]	passage at which resistant variants emerged (CypI comparison) ([2]; 0.25 μM of drug selection) [passage]	passage at which resistance began ([2]; 1 μM drug pressure, first account (Fig 3B)) [passage]	passage at which resistant variants emerged (CypI comparison) ([2]; 1 μM of drug selection) [passage]	IC50 (Human recombinant CypD; IC50, neutralization of the isomerase activity of CypD)	passage at which resistance began ([2]; 2.5 μM) [passage]	passage at which resistance began ([2]; 10 μM) [passage]	passages until development of HCV resistance, DAA alone ("instead of" comparison) ([2]; DAA alone, compared with combination) [passages]	EC50 [3] [nM]	EC50 [4] [nM]	EC50 [5] [nM]	activity against GT4a [6]
C/C=C/C[C@@H](C)[C@@H](O)[C@H]1C(=O)N[C@@H](CC)C(=O)N(C)[C@H](C)C(=O)N(CC)[C@@H](C(C)C)C(=O)N[C@@H](C(C)C)C(=O)N(C)[C@@H](CC(C)C)C(=O)N[C@@H](C)C(=O)N[C@H](C)C(=O)N(C)[C@@H](CC(C)C)C(=O)N(C)[C@@H](CC(C)C)C(=O)N(C)[C@@H](C(C)C)C(=O)N1C [ALV, alisporivir]	1.7	3.4	85.7	15	16	17								
C/C=C/C[C@@H](C)[C@@H](O)[C@H]1C(=O)N[C@@H](CC)C(=O)N(C)[C@H](SCCN(C)C)C(=O)N(C)[C@@H](CC(C)(C)O)C(=O)N[C@@H](C(C)C)C(=O)N(C)[C@@H](CC(C)C)C(=O)N[C@@H](C)C(=O)N[C@H](C)C(=O)N(C)[C@@H](CC(C)C)C(=O)N(C)[C@@H](CC(C)C)C(=O)N(C)[C@@H](C(C)C)C(=O)N1C [SCY-635]			38.6				7.1 nM and 7.2 nM							
CC(C)(C)NC(=O)N[C@H](C(=O)N1C[C@H]2[C@@H]([C@H]1C(=O)NC(CC1CCC1)C(=O)C(N)=O)C2(C)C)C(C)(C)C (stereo partly drawn) [boceprevir]								7	10	7	138	92.7	129	inactive
